Legend:
K562/ADR = test: Anti-proliferative activity in cancer cells showing multiple drug resistance (MTT assay); format: cell-based; conditions: ratio of IC50 K562/ADR to IC50 K562
Procedure: (§1) HeLa cells (ATCC, USA), which are a human cervical cancer cell line, were dispensed into a 96-well plate at 2×10^3 cells/well, and the cells were treated with DMSO or the indole derivatives of the present invention, and then allowed to grow for 4 days. And then, MTT (3-(4,5-Dimethylthiazol-2-yl)-2,5-diphenyltetrazolium bromide) reagent was added to the wells at 10 μl/well. After 2 hours, the absorbance was measured at “OD 450” and statistical values were obtained using the plizm6 program. The data represent mean values of the results of two repeated assays (Table 1). Specifically, K562 and MCF7 (Bio Evaluation Center, Korea Research Institute of Bioscience and Biotechnology, Korea), and K562/ADR and MCF7/ADR (Bio Evaluation Center, Korea Research Institute of Bioscience and Biotechnology, Korea), which are multiple drug-resistant cell lines of the above mentioned cell lines, respectively, were cultured on a microtiter plate at 1-3×10^3 cells/well.

MCF7/ADR = test: as above; format: cell-based; conditions: ratio of IC50 MCF7/ADR to IC50 MCF7
Procedure: as §1

[1] = system: human-derived skin cancer cell line (A431); test: Anti-cancer effect in human-derived skin cancer cell (A431) implantation nude mouse model; format: in vivo, BALB/C female nude mouse; conditions: for tumor growth inhibition: day 23; for tumor weight reduction: excised A431 tumors weighed
Procedure: The human cancer cell line A431 which was kept frozen in liquid nitrogen was thawed and cell culture was conducted. Cells were cultured in a CO2 incubator (Forma, USA) at 37° C. and 5% CO2 for an appropriate period of time. On the last day of culture, all cancer cells were collected and counted and the cell concentration was adjusted to 1×10^7 cells/ml using serum free media. The culture solution thus prepared was injected subcutaneously in the axillary region between the scapula and chest wall in an amount of 0.3 ml per BALB/C female nude mouse (5 weeks old, Nara Biotech) (3×10^6 cells/mouse). […] To examine the toxicity levels of the repeated intraperitoneal administration of WCI-1031 to A431 cancer cell implantation nude mice, general symptoms and weight changes of the animals were observed during the administration period. […] On day 23 after the start of the drug administration, blood was taken from the mice through ophthalmic veins 2 hours after the last administration, and the mice were sacrificed using CO2 gas. Then the mice were photographed and the tumors was isolated and weighed in a chemical balance. After taking photographs, each tumor was divided in half, and the resultant tumors were fixed to liquid nitrogen and formalin, respectively.

Compound	Resistance factor (K562/ADR)	Resistance factor (MCF7/ADR)	tumor growth inhibition ([1]; 5-FU 2 mg/ml at 10 ml/kg, days 0-2, 5-9, 12-16, 19-23, p<0.01)	tumor weight reduction ([1]; 5-FU 2 mg/ml at 10 ml/kg, p<0.05)	tumor growth inhibition ([1]; colchicine 0.07 mg/kg, days 0-23, p<0.05)	tumor weight reduction ([1]; colchicine 0.07 mg/kg, p<0.05)
COc1cccc2c1C(=O)c1c(O)c3c(c(O)c1C2=O)C[C@@](O)(C(=O)CO)C[C@@H]3O[C@H]1C[C@H](N)[C@H](O)[C@H](C)O1 [Doxorubicin, doxorubicin]	767.91	169.57				
O=c1[nH]cc(F)c(=O)[nH]1 [Example 5-FU, 5-FU, reference compound]			20.7%	20.8%		
COc1cc2c(c(OC)c1OC)-c1ccc(OC)c(=O)cc1[C@@H](NC(C)=O)CC2 [colchicine, reference compound]	22.91	34.15			17.6%	17.6%
CC[C@]1(O)C[C@@H]2CN(CCc3c([nH]c4ccccc34)[C@@](C(=O)OC)(c3cc4c(cc3OC)N(C)[C@H]3[C@@](O)(C(=O)OC)[C@H](OC(C)=O)[C@]5(CC)C=CCN6CC[C@]43[C@@H]65)C2)C1 [Vinblastine, vinblastine]	15.63	18.17				
CC(=O)O[C@H]1C(=O)[C@@]2(C)[C@H]([C@H](OC(=O)c3ccccc3)[C@]3(O)C[C@H](OC(=O)[C@H](O)[C@@H](NC(=O)c4ccccc4)c4ccccc4)C(C)=C1C3(C)C)[C@]1(OC(C)=O)CO[C@@H]1C[C@@H]2O [Taxol, taxol]	519.6	438.38				

From US20210292306A1, “NOVEL INDOLE DERIVATIVE AND ANTI-CANCER CONPOSITION CONTAINING SAME” (KOREA RESEARCH INSTITUTE OF BIOSCIENCE AND BIOTECHNOLOGY, priority 2016, published 2021)
